# Test results from article PMC3516633 (European journal of medicinal chemistry, 2012).
# Like-named read-outs stand apart in the source and are kept apart here.
# Columns and labels:
# [1] = molecular target: T1, TbAUK1 (Trypanosoma brucei brucei, UniProt Q384J7); experiment: in vitro kinase assay with immunoprecipitated AU1-tagged TbAUK1; assay type: biochemical; details: tested at 500 nM; AU1-tagged TbAUK1 pull-down, MBP substrate
# [2] = system: 15 different cancer cell lines; details: read-out: mean EC50 averaged from 15 different cancer cell lines; cited from earlier work
# [3] = system: T. brucei rhodesiense YTAT1.1 strain; experiment: dose-response against T. b. rhodesiense cultures, Cell Titer Blue assay; assay type: cell-based, Trypanosoma brucei rhodesiense; details: ratio MOLT-4 EC50 / T. b. rhodesiense EC50
# [4] = molecular target: T1, TbAUK1; details: at 200 nM; cited from earlier work
SMILES,Selectivity MOLT/Tbr [3],other results
"CO[C@@H](C(=O)N1Cc2[nH]nc(NC(=O)c3ccc(N4CCN(C)CC4)cc3)c2C1)c1ccccc1 [Compound 1, danusertib]",,inhibition of TbAUK1 kinase activity [1]: inhibited TbAUK1 to the same background level as hesperadin; EC50 [2]: 123 nM
"CCc1cccc(CC)c1NC(=O)N1Cc2[nH]nc(NC(=O)c3ccc(N4CCN(C)CC4)cc3)c2C1 [Compound 2, PHA-680632]",,inhibition of TbAUK1 kinase activity [1]: inhibited TbAUK1 to the same background level as hesperadin
"CN1CCN(c2ccc(C(=O)Nc3n[nH]c4c3CN(C(=O)Cc3cccc5ccccc35)C4)cc2)CC1 [Compound 8, 4-(4-Methylpiperazin-1-yl)-N-(5-(2-(naphthalen-1-yl)acetyl)-1,4,5,6-tetrahydropyrrolo[3,4-c]pyrazol-3-yl)benzamide]",23.4,
"CN1CCN(c2ccc(C(=O)Nc3n[nH]c4c3CN(C(=O)Cc3c(F)ccc(F)c3F)C4)cc2)CC1 [Compound 9, 4-(4-Methylpiperazin-1-yl)-N-(5-(2-(2,3,6-trifluorophenyl)acetyl)-1,4,5,6-tetrahydropyrrolo[3,4-c]pyrazol-3-yl)benzamide]",6.9,
"CN1CCN(c2ccc(C(=O)Nc3n[nH]c4c3CN(C(=O)Cc3cccc(Cl)c3)C4)cc2)CC1 [Compound 11, N-(5-(2-(3-Chlorophenyl)acetyl)-1,4,5,6-tetrahydropyrrolo[3,4-c]pyrazol-3-yl)-4-(4-methylpiperazin-1-yl)benzamide]",6.9,
"Cc1ccc(C(C)C(=O)N2Cc3[nH]nc(NC(=O)c4ccc(N5CCN(C)CC5)cc4)c3C2)cc1 (centres unmarked) [Compound 13, 4-(4-Methylpiperazin-1-yl)-N-(5-(2-(p-tolyl)propanoyl)-1,4,5,6-tetrahydropyrrolo[3,4-c]pyrazol-3-yl)benzamide]",6.4,
"Cc1cc(C)cc(CC(=O)N2Cc3[nH]nc(NC(=O)c4ccc(N5CCN(C)CC5)cc4)c3C2)c1 [Compound 14, N-(5-(2-(3,5-Dimethylphenyl)acetyl)-1,4,5,6-tetrahydropyrrolo[3,4-c]pyrazol-3-yl)-4-(4-methylpiperazin-1-yl)benzamide]",4.3,
"Cc1ccc(C)c(CC(=O)N2Cc3[nH]nc(NC(=O)c4ccc(N5CCN(C)CC5)cc4)c3C2)c1 [Compound 15, N-(5-(2-(2,5-Dimethylphenyl)acetyl)-1,4,5,6-tetrahydropyrrolo[3,4-c]pyrazol-3-yl)-4-(4-methylpiperazin-1-yl)benzamide]",2.2,
"CN1CCN(c2ccc(C(=O)Nc3n[nH]c4c3CN(C(=O)Cc3cc(F)cc(F)c3F)C4)cc2)CC1 [Compound 16, 4-(4-Methylpiperazin-1-yl)-N-(5-(2-(2,3,5-trifluorophenyl)acetyl)-1,4,5,6-tetrahydropyrrolo[3,4-c]pyrazol-3-yl)benzamide]",1.2,
"Cc1[nH]c2ccccc2c1CC(=O)N1Cc2[nH]nc(NC(=O)c3ccc(N4CCN(C)CC4)cc3)c2C1 [Compound 17, N-(5-(2-(2-Methyl-1H-indol-3-yl)acetyl)-1,4,5,6-tetrahydropyrrolo[3,4-c]pyrazol-3-yl)-4-(4-methylpiperazin-1-yl)benzamide]",1.0,
"CN1CCN(c2ccc(C(=O)Nc3n[nH]c4c3CN(C(=O)Cc3cc(F)cc(F)c3)C4)cc2)CC1 [Compound 18, N-(5-(2-(3,5-Difluorophenyl)acetyl)-1,4,5,6-tetrahydropyrrolo[3,4-c]pyrazol-3-yl)-4-(4-methylpiperazin-1-yl)benzamide]",0.7,
"CCS(=O)(=O)Nc1ccc2c(c1)/C(=C(/Nc1ccc(CN3CCCCC3)cc1)c1ccccc1)C(=O)N2 [Hesperadin, hesperadin]",,inhibition of TbAUK1 kinase activity [1]: completely inhibited TbAUK1; inhibition of TbAUK1 kinase activity [4]: to the level of a background kinase
